Reference: patent US20100298141A1, “SUBSTITUTED PYRIDINE N-OXIDE HERBICIDES” (E. I. DU PONT DE NEMOURS AND COMPANY, priority 2007, published 2010)

Key:
[1] = test system: giant foxtail; assay: Test A pre-/postemergence greenhouse test; type: in vivo, Setaria faberi; settings: for Foxtail, Giant plant response rating: 0 to 100 scale; for Plant response rating, Foxtail, Giant: 0 to 100 scale where 0 is no effect and 100 is complete control
Outline: (§1)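 Visual injury ratings, made relative to untreated controls roughly ten days after treatment, cover both preemergence and postemergence application. Compounds in a surfactant-containing non-phytotoxic solvent were sprayed onto the soil surface after sowing and, simultaneously, onto young plants at the one- to two-leaf stage.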

[2] = test system: morningglory; assay: Test A pre-/postemergence greenhouse test; type: in vivo, Ipomoea spp.; settings: for Morningglory plant response rating: 0 to 100 scale; for Plant response rating, Morningglory: 0 to 100 scale where 0 is no effect and 100 is complete control
Outline: as §1

[3] = test system: redroot pigweed; assay: Test A pre-/postemergence greenhouse test; type: in vivo, Amaranthus retroflexus; settings: for Pigweed plant response rating: 0 to 100 scale; for Plant response rating, Pigweed: 0 to 100 scale where 0 is no effect and 100 is complete control
Outline: as §1

[4] = test system: wheat; assay: Test A pre-/postemergence greenhouse test; type: in vivo, Triticum aestivum; settings: for Wheat plant response rating: 0 to 100 scale; for Plant response rating, Wheat: 0 to 100 scale where 0 is no effect and 100 is complete control
Outline: as §1

[5] = test system: blackgrass; assay: Test C pre-/postemergence test; type: in vivo, Alopecurus myosuroides
Outline: (§2)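 Test chemicals were formulated with surfactant in a non-phytotoxic solvent and sprayed both on freshly planted seeds (preemergence) and on 1- to 4-leaf plants of 2–18 cm (postemergence). Flooded-paddy pots received compound directly into 3 cm of standing water, maintained for the test.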

[6] = test system: downy brome; assay: Test C pre-/postemergence test; type: in vivo, Bromus tectorum
Outline: as §2

[7] = test system: wheat; assay: Test C pre-/postemergence test; type: in vivo, Triticum aestivum
Outline: as §2

[8] = test system: wild oat; assay: Test C pre-/postemergence test; type: in vivo, Avena fatua
Outline: as §2

[9] = test system: catchweed bedstraw; assay: Test C pre-/postemergence test; type: in vivo, Galium aparine
Outline: as §2

[10] = test system: Surinam grass; assay: Test C pre-/postemergence test; type: in vivo, Brachiaria decumbens
Outline: as §2

[11] = test system: cocklebur; assay: Test C pre-/postemergence test; type: in vivo, Xanthium strumarium
Outline: as §2

[12] = test system: woolly cupgrass; assay: Test C pre-/postemergence test; type: in vivo, Eriochloa villosa
Outline: as §2

[13] = test system: giant foxtail; assay: Test C pre-/postemergence test; type: in vivo, Setaria faberii
Outline: as §2

[14] = test system: kochia; assay: Test C pre-/postemergence test; type: in vivo, Kochia scoparia
Outline: as §2

[15] = test system: lambsquarters; assay: Test C pre-/postemergence test; type: in vivo, Chenopodium album
Outline: as §2

[16] = test system: eastern black nightshade; assay: Test C pre-/postemergence test; type: in vivo, Solanum ptycanthum
Outline: as §2

[17] = test system: common ragweed; assay: Test C pre-/postemergence test; type: in vivo, Ambrosia elation
Outline: as §2

[18] = test system: common (oilseed) sunflower; assay: Test C pre-/postemergence test; type: in vivo, Helianthus annuus
Outline: as §2

[19] = test system: velvetleaf; assay: Test C pre-/postemergence test; type: in vivo, Abutilon theophrasti
Outline: as §2

[20] = Postemergence, 125 g ai/ha, 0 is no effect, 100 is complete control
[21] = Postemergence, 500 g ai/ha, 0 is no effect, 100 is complete control
[22] = Preemergence, 125 g ai/ha, 0 no effect, 100 complete control
[23] = 31 g ai/ha, Preemergence, scale 0 to 100
[24] = 62 g ai/ha, preemergence, scale 0 (no effect) to 100 (complete control)
[25] = preemergence, 125 g ai/ha, scale 0 (no effect) to 100 (complete control)
[26] = 62 g ai/ha, Preemergence, scale 0 to 100
[27] = 125 g ai/ha, preemergence, scale 0 (no effect) to 100 (complete control)
[28] = Preemergence, 31 g ai/ha, scale 0 to 100 (0 no effect, 100 complete control)
[29] = preemergence, 250 g ai/ha, scale 0 (no effect) to 100 (complete control)

Cn1nc(C(F)(F)F)c(C(Cl)S(=O)(=O)c2cccc[n+]2[O-])c1Cl (stereo not shown) [Compound 12]
Foxtail, Giant plant response rating [1, 20]: 50 | Foxtail, Giant plant response rating [1, 21]: 70 | Foxtail, Giant plant response rating [1, 22]: 80 | Plant response rating, Foxtail, Giant ([1]; Preemergence, 500 g ai/ha): 100 | Morningglory plant response rating [2, 20]: 20 | Morningglory plant response rating [2, 21]: 30 | Morningglory plant response rating [2, 22]: 0 | Plant response rating, Morningglory ([2]; Preemergence, 500 g ai/ha): 60 | Pigweed plant response rating [3, 20]: 0 | Pigweed plant response rating [3, 21]: 0 | Wheat plant response rating [4, 20]: 0 | Wheat plant response rating [4, 21]: 40 | Wheat plant response rating [4, 22]: 0 | Plant response rating, Wheat ([4]; Preemergence, 500 g ai/ha): 30 | Blackgrass plant response rating [5, 23]: 0 | Blackgrass plant response rating [5, 24]: 98 | Plant response rating (0 to 100), Blackgrass ([5]; Preemergence, 250 g ai/ha): 100 | Blackgrass plant response rating [5, 25]: 98 | Bromegrass, Downy plant response rating [6, 23]: 0 | Bromegrass, Downy plant response rating [6, 24]: 0 | Plant response rating (0 to 100), Bromegrass, Downy ([6]; Preemergence, 250 g ai/ha): 0 | Bromegrass, Downy plant response rating [6, 25]: 0 | Wheat plant response rating [7, 24]: 0 | Plant response rating (0 to 100), Wheat ([7]; Preemergence, 250 g ai/ha): 20 | Wheat plant response rating [7, 25]: 0 | Oat, Wild plant response rating [8, 23]: 0 | Oat, Wild plant response rating [8, 24]: 0 | Plant response rating (0 to 100), Oat, Wild ([8]; Preemergence, 250 g ai/ha): 0 | Oat, Wild plant response rating [8, 25]: 0 | Galium plant response rating [9, 23]: 80 | Galium plant response rating [9, 24]: 100 | Plant response rating (0 to 100), Galium ([9]; Preemergence, 250 g ai/ha): 100 | Galium plant response rating [9, 25]: 100 | Surinam Grass plant response rating [10, 24]: 0 | Plant response rating (0 to 100), Surinam Grass ([10]; Preemergence, 250 g ai/ha): 40 | Surinam Grass plant response rating [10, 25]: 30 | Cocklebur plant response rating [11, 23]: 0 | Cocklebur plant response rating [11, 24]: 0 | Plant response rating (0 to 100), Cocklebur ([11]; Preemergence, 250 g ai/ha): 0 | Cocklebur plant response rating [11, 25]: 0 | Cupgrass, Woolly plant response rating [12, 23]: 80 | Cupgrass, Woolly plant response rating [12, 24]: 100 | Plant response rating (0 to 100), Cupgrass, Woolly ([12]; Preemergence, 250 g ai/ha): 100 | Cupgrass, Woolly plant response rating [12, 25]: 100 | Foxtail, Giant plant response rating [13, 23]: 80 | Foxtail, Giant plant response rating [13, 24]: 80 | Plant response rating (0 to 100), Foxtail, Giant ([13]; Preemergence, 250 g ai/ha): 100 | Foxtail, Giant plant response rating [13, 25]: 80 | Kochia plant response rating [14, 23]: 0 | Kochia plant response rating [14, 24]: 0 | Plant response rating (0 to 100), Kochia ([14]; Preemergence, 250 g ai/ha): 80 | Lambsquarters plant response rating [15, 23]: 0 | Lambsquarters plant response rating [15, 24]: 100 | Plant response rating (0 to 100), Lambsquarters ([15]; Preemergence, 250 g ai/ha): 100 | Lambsquarters plant response rating [15, 25]: 100 | Nightshade plant response rating [16, 23]: 100 | Nightshade plant response rating [16, 24]: 100 | Plant response rating (0 to 100), Nightshade ([16]; Preemergence, 250 g ai/ha): 100 | Nightshade plant response rating [16, 25]: 100 | Ragweed plant response rating [17, 23]: 0 | Ragweed plant response rating [17, 24]: 0 | Plant response rating (0 to 100), Ragweed ([17]; Preemergence, 250 g ai/ha): 20 | Sunflower plant response rating [18, 24]: 0 | Plant response rating (0 to 100), Sunflower ([18]; Preemergence, 250 g ai/ha): 20 | Sunflower plant response rating [18, 25]: 0 | Velvetleaf plant response rating [19, 24]: 0 | Plant response rating (0 to 100), Velvetleaf ([19]; Preemergence, 250 g ai/ha): 0 | Velvetleaf plant response rating [19, 25]: 0

Cn1nc(C(F)(F)F)c(C[S+]([O-])c2ccc(Cl)c[n+]2[O-])c1OCC(F)F (stereo not shown) [Compound 85]
Plant response rating, Foxtail, Giant ([1]; Postemergence, 125 g ai/ha): 90 | Foxtail, Giant plant response rating [1, 21]: 90 | Foxtail, Giant plant response rating [1, 22]: 100 | Plant response rating, Foxtail, Giant ([1]; Preemergence, 500 g ai/ha): 100 | Plant response rating, Morningglory ([2]; Postemergence, 125 g ai/ha): 70 | Morningglory plant response rating [2, 21]: 90 | Morningglory plant response rating [2, 22]: 60 | Plant response rating, Morningglory ([2]; Preemergence, 500 g ai/ha): 100 | Plant response rating, Pigweed ([3]; Postemergence, 125 g ai/ha): 60 | Pigweed plant response rating [3, 21]: 90 | Pigweed plant response rating [3, 22]: 70 | Plant response rating, Pigweed ([3]; Preemergence, 500 g ai/ha): 90 | Plant response rating, Wheat ([4]; Postemergence, 125 g ai/ha): 60 | Wheat plant response rating [4, 21]: 70 | Wheat plant response rating [4, 22]: 70 | Wheat plant response rating ([4]; Preemergence, 500 g ai/ha, 0 no effect, 100 complete control): 90 | Blackgrass plant response rating [5, 26]: 100 | Blackgrass plant response rating [5, 27]: 100 | Plant response rating, Blackgrass [5, 28]: 100 | Blackgrass plant response rating [5, 29]: 100 | Bromegrass, Downy plant response rating [6, 27]: 70 | Bromegrass, Downy plant response rating [6, 29]: 100 | Wheat plant response rating [7, 26]: 50 | Wheat plant response rating [7, 27]: 70 | Plant response rating, Wheat [7, 28]: 50 | Wheat plant response rating [7, 29]: 100 | Oat, Wild plant response rating [8, 26]: 80 | Oat, Wild plant response rating [8, 27]: 85 | Plant response rating, Oat, Wild [8, 28]: 80 | Oat, Wild plant response rating [8, 29]: 100 | Galium plant response rating [9, 26]: 100 | Galium plant response rating [9, 27]: 100 | Plant response rating, Galium [9, 28]: 98 | Galium plant response rating [9, 29]: 100 | Surinam Grass plant response rating [10, 26]: 95 | Surinam Grass plant response rating [10, 27]: 100 | Plant response rating, Surinam Grass [10, 28]: 85 | Surinam Grass plant response rating [10, 29]: 100 | Cocklebur plant response rating [11, 26]: 0 | Cocklebur plant response rating [11, 27]: 0 | Plant response rating, Cocklebur [11, 28]: 0 | Cocklebur plant response rating [11, 29]: 0 | Cupgrass, Woolly plant response rating [12, 26]: 95 | Cupgrass, Woolly plant response rating [12, 27]: 95 | Plant response rating, Cupgrass, Woolly [12, 28]: 80 | Cupgrass, Woolly plant response rating [12, 29]: 100 | Foxtail, Giant plant response rating [13, 26]: 100 | Plant response rating, Foxtail, Giant [13, 28]: 85 | Foxtail, Giant plant response rating [13, 29]: 100 | Kochia plant response rating [14, 26]: 100 | Kochia plant response rating [14, 27]: 100 | Plant response rating, Kochia [14, 28]: 100 | Kochia plant response rating [14, 29]: 100 | Lambsquarters plant response rating [15, 26]: 100 | Lambsquarters plant response rating [15, 27]: 100 | Plant response rating, Lambsquarters [15, 28]: 100 | Lambsquarters plant response rating [15, 29]: 100 | Nightshade plant response rating [16, 26]: 85 | Nightshade plant response rating [16, 27]: 100 | Nightshade plant response rating [16, 29]: 100 | Ragweed plant response rating [17, 26]: 100 | Ragweed plant response rating [17, 27]: 100 | Plant response rating, Ragweed [17, 28]: 100 | Ragweed plant response rating [17, 29]: 100 | Sunflower plant response rating [18, 26]: 30 | Sunflower plant response rating [18, 27]: 50 | Sunflower plant response rating [18, 29]: 80 | Velvetleaf plant response rating [19, 26]: 70 | Velvetleaf plant response rating [19, 27]: 95 | Plant response rating, Velvetleaf [19, 28]: 50 | Velvetleaf plant response rating [19, 29]: 100
